The text below walks through data of patent US20180258064A1, “SOLID FORMS OF 3-(5-AMINO-2-METHYL-4-OXO-4H-QUINAZOLIN-3-YL)-PIPERIDINE-2,6-DIONE, AND THEIR PHARMACEUTICAL COMPOSITIONS AND USES” (Celgene Corporation, priority 2017, published 2018).

Data set [1] is described as follows: Dynamic Vapor Sorption (DVS). The data set is classed as physicochemical. The conditions noted are these: for DVS weight gain from 5 to 95% RH / DVS weight loss from 95 to 5% RH / DVS weight loss upon drying at 5% RH: 25° C.; for DVS weight gain from 5 to 95% RH: adsorption cycle 5 to 95% RH; for DVS weight loss from 95 to 5% RH: desorption cycle 95 to 5% RH. The method, then:
DVS analysis was carried out using a TA Instruments Q5000 Dynamic Vapor Sorption analyzer. The instrument was calibrated with standard weights and a sodium bromide standard for humidity. Approximately 10-25 mg of sample was loaded into a metalcoated quartz pan for analysis. The sample was analyzed at 25° C. with a maximum equilibration time of one hour in 10% relative humidity (RH) steps from 5 to 95% RH (adsorption cycle) and from 95 to 5% RH (desorption cycle). The movement from one step to the next occurred either after satisfying the equilibrium criterion of 0.01% weight change or, if the equilibrium criterion was not met, after one hour. The percent weight change values were calculated using Microsoft Excel®.

A short description of data set [2]: Post-DVS XRPD (solid form after the DVS cycle). Type of data set: physicochemical. Particulars: XRPD pattern after DVS. An excerpt: The Rigaku Smart-Lab X-ray diffraction system was configured for reflection Bragg-Brentano geometry using a line source X-ray beam. The x-ray source is a Cu Long Fine Focus tube that was operated at 40 kV and 44 mA. That source provides an incident beam profile at the sample that changes from a narrow line at high angles to a broad rectangle at low angles. Beam conditioning slits are used on the line X-ray source to ensure that the maximum beam size is less than 10 mm both along the line and normal to the line. The Bragg-Brentano geometry is a para-focusing geometry controlled by passive divergence and receiving slits with the sample itself acting as the focusing component for the optics. The inherent resolution of Bragg-Brentano geometry is governed in part by the diffractometer radius and the width of the receiving slit used. Typically, the Rigaku Smart-Lab is operated to give peak widths of 0.1° 2θ or less. The axial divergence of the X-ray beam is controlled by 5.0° Soller slits in both the incident and diffracted beam paths. Powder samples were prepared in a low background Si holder using light manual pressure to keep the sample surfaces flat and level with the reference surface of the sample holder. Each sample was analyzed from 2 to 40° 2θ using a continuous scan of 6° 2θ per minute with an effective step size of 0.02° 2θ. DVS analysis was carried out using a TA Instruments Q5000 Dynamic Vapor Sorption analyzer. The instrument was calibrated with standard weights and a sodium bromide standard for humidity. Approximately 10-25 mg of sample was loaded into a metalcoated quartz pan for analysis. The sample was analyzed at 25° C. with a maximum equilibration time of one hour in 10% relative humidity (RH) steps from 5 to 95% RH (adsorption cycle) and from 95 to 5% RH (desorption cycle). The movement from one step to the next occurred either after satisfying the equilibrium criterion of 0.01% weight change or, if the equilibrium criterion was not met, after one hour. The percent weight change values were calculated using Microsoft Excel®.

[3] abbreviates: listed as Form A of the besylate salt of Compound 1.
Where [4] appears, read: listed as Form A of the mesylate salt of Compound 1.
The mark [5] stands for this setting: listed as Form A of the sulfate salt of Compound 1.
[6] abbreviates: listed as Form A of the tosylate salt of Compound 1.

Structures are written as SMILES. Counter-ions that a name gives are not always drawn.

With `Cc1nc2cccc(N)c2c(=O)n1C1CCC(=O)NC1=O` (centres unmarked) [Compound 1 besylate salt Form A, 3-(5-amino-2-methyl-4-oxo-4H-quinazolin-3-yl)-piperidine-2,6-dione], in data set [1] (listed as Besylate Form A), the “DVS weight gain from 5 to 95% RH” value is given as 4.31% gain from 5 to 95% RH, the “DVS weight loss from 95 to 5% RH” value is 4.31% loss from 95 to 5% RH and the “DVS weight loss upon drying at 5% RH” value is on record as 0.16% loss upon drying at 5% RH. Further, in data set [1] (setting [3]), the “DVS weight gain from 5 to 95% RH” value was “about 4.31%” and the “DVS weight loss from 95 to 5% RH” value is listed as “about 4.31%”. Further, the hygroscopicity result in data set [1] (wording in text, based on DVS) was “moderately hygroscopic”. In addition, the “Post-DVS XRPD” value in data set [2] (listed as Besylate Form A) was “Unchanged”.
Take `Cc1nc2cccc(N)c2c(=O)n1C1CCC(=O)NC1=O` (centres unmarked) [Compound 1 mesylate salt Form A, 3-(5-amino-2-methyl-4-oxo-4H-quinazolin-3-yl)-piperidine-2,6-dione]: in data set [1] (setting [4]), the “DVS weight gain from 5 to 95% RH” value is reported as “about 9.79%” and the “DVS weight loss from 95 to 5% RH” value is “about 7.98%”. For the same compound, in data set [1] (listed as Mesylate Form A), the “DVS weight gain from 5 to 95% RH” value is 9.79% gain from 5 to 95% RH, the “DVS weight loss from 95 to 5% RH” value is 7.98% loss from 95 to 5% RH and the “DVS weight loss upon drying at 5% RH” value is given as 0.17% loss upon drying at 5% RH. Besides, the “Post-DVS XRPD” value in data set [2] (listed as Mesylate Form A) is “Mesylate Form B”.
For the compound `Cc1nc2cccc(N)c2c(=O)n1C1CCC(=O)NC1=O` (centres unmarked) [Compound 1 sulfate salt Form A, 3-(5-amino-2-methyl-4-oxo-4H-quinazolin-3-yl)-piperidine-2,6-dione], in data set [1] (setting [5]), the “DVS weight gain from 5 to 95% RH” value is on record as “about 5.36%” and the “DVS weight loss from 95 to 5% RH” value is reported as “about 5.63%”. For the same compound, in data set [1] (listed as Sulfate Form A), the “DVS weight gain from 5 to 95% RH” value was 5.36% gain from 5 to 95% RH, the “DVS weight loss from 95 to 5% RH” value is 5.63% loss from 95 to 5% RH and the “DVS weight loss upon drying at 5% RH” value turned out to be 0.21% loss on drying at 5% RH. The “Post-DVS XRPD” value in data set [2] is given as “unchanged”. For the same compound, the “Post-DVS XRPD” value in data set [2] (listed as Sulfate Form A) was “Unchanged”.
In the case of `Cc1nc2cccc(N)c2c(=O)n1C1CCC(=O)NC1=O` (centres unmarked) [Compound 1 tosylate salt Form A, 3-(5-amino-2-methyl-4-oxo-4H-quinazolin-3-yl)-piperidine-2,6-dione], in data set [1] (setting [6]), the “DVS weight gain from 5 to 95% RH” value is “about 1.15%” and the “DVS weight loss from 95 to 5% RH” value is recorded as “about 1.17%”. For the same compound, in data set [1] (listed as Tosylate Form A), the “DVS weight gain from 5 to 95% RH” value is 1.15% gain from 5 to 95% RH, the “DVS weight loss from 95 to 5% RH” value is 1.17% loss from 95 to 5% RH and the “DVS weight loss upon drying at 5% RH” value is reported as 0.14% loss upon drying at 5%. Moreover, the “Post-DVS XRPD” value in data set [2] (listed as Tosylate Form A) is “Tosylate form B”.
